Test results published in patent publication US20260041620A1, “NOVEL AMINO ACID BASED SALTS, COMPOSITIONS AND METHODS FOR TREATING SKIN AND IMPROVING SKIN REJUVENATION AND LONGEVITY” (Sytheon Ltd, priority 2023, published 2026).
Like-named read-outs stand apart in the source and are kept apart here.

How the values were obtained:
Telomerase = Telomerase Activity Quantification qPCR Assay in human dermal fibroblasts; assay type: cell-based; conditions: three days
Description: Normal neonatal human dermal fibroblasts (HDF cat, #2310; ScienCell, Oceanside, CA) were grown to confluence in the 6 well plate format and incubated with the test substances identified in Table 3 for three days. Following incubation, the cells were lysed and telomerase activity was determined with Telomerase Activity Quantification qPCR Assay Kit from ScienCell (cat. #8928). Forget-Me-Not™ EvaGreen® qPCR Master Mix (Low ROX) (Biotium, Fremont, CA) was used for real-time quantitative PCR on C1000 Touch System with CFX384™ optical module Detection. For quantifying the level of activity, the Comparative Cq method was used, following the equation: […]
where TPS is telomere primer set, which recognizes and amplifies newly synthesized telomere sequences and Cq(TPS) is the Quantification Cycle Value obtained from the qPCR software. The relative telomerase activity difference between the experimental condition and control is expressed as 2^−ΔCq Telomerase activity was considered different if the level of expression was reasonably high (Cq≤33 cycles to detect), the difference vs. control was >2 fold and the p value, assessed with two-tailed Student test, was <0.05.

HDAC 3 = HDAC 3 (Homo sapiens, UniProt O15379)
Chain of HDAC 3 (O15379 whole entry): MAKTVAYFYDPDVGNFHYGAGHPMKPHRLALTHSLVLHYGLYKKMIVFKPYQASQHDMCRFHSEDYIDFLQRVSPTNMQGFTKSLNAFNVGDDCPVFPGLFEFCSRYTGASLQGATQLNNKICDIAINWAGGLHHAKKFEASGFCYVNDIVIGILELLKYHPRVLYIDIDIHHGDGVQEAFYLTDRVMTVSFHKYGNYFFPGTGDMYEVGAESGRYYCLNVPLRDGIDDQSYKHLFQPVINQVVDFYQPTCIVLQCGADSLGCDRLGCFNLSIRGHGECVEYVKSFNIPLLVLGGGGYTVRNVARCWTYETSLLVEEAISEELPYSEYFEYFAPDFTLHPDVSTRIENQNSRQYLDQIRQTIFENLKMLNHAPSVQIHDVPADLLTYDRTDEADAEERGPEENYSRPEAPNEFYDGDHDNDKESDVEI
Chain of HDAC 3 (Q9Y618 395-489 partner limits assumed): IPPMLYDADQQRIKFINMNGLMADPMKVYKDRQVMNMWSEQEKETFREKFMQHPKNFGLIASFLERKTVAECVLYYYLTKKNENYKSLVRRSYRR
Description: Test materials were stored at room temperature and stock solutions were prepared at 20 mg/ml in DMSO. Further dilutions were made in sterile distilled water immediately before being added to the reaction mixture containing a substrate, and the reaction was triggered by the addition of purified HDAC enzymes, Double distilled water was the negative control and trichostatin (1.5 ug/ml) was used as a positive control for validation of each study. The test procedure was as directed in the assay kits. The products of the reactions were measured by fluorometry at ex/em 350/450 nm using multi-well plate fluorometer Cytofluor 4000 (Applied Biosystem, Foster City, CA) or using SpectraMax i3× Multi-Mode Detection Platform from Molecular Devices (Sunnyvale, CA).
Statistical significance was assessed with a two-tail Student test. Deviations of ≤20% as compared to water control with p values below 0.05 were considered statistically significant.

Prolidase (PEPD) = test: Prolidase Assay (ELISA); assay type: cell-based; conditions: for Prolidase: untreated 74 ± 3
Description: A series of standards was prepared and 50 μl aliquots of the standards and the test samples identified in Table 6 were added to wells of a prolidase ELISA plate, followed by the addition of 100 μl […] conjugated anti-prolidase antibody. The plate was then incubated at 37° C. for 1 hour, Following incubation, the ELISA plate was washed and 100 μl of substrate solution was added to each well and the well-plate incubated for 10-15 minutes at room temperature to allow the color generation reaction to occur. At the end of the color generation reaction, 50 μl of stop solution (1 N sulfuric acid) was added to each well and the plates read at 460 nm using a plate reader.
(§1) To quantify the amount of each substance present, a standard curve was generated using known concentrations of each substance. A regression analysis was performed to establish the line that best fit those data points. Absorbance values for the test materials and untreated samples were used to estimate the amount of each substance present in each sample. Treatment means were compared using ANOVA, with an […] per treatment. Statistical significance was set at p≤0.05.

COX-2 = target: T1, COX-2 (Homo sapiens, UniProt P35354)
T1 sequence (P35354 18-604): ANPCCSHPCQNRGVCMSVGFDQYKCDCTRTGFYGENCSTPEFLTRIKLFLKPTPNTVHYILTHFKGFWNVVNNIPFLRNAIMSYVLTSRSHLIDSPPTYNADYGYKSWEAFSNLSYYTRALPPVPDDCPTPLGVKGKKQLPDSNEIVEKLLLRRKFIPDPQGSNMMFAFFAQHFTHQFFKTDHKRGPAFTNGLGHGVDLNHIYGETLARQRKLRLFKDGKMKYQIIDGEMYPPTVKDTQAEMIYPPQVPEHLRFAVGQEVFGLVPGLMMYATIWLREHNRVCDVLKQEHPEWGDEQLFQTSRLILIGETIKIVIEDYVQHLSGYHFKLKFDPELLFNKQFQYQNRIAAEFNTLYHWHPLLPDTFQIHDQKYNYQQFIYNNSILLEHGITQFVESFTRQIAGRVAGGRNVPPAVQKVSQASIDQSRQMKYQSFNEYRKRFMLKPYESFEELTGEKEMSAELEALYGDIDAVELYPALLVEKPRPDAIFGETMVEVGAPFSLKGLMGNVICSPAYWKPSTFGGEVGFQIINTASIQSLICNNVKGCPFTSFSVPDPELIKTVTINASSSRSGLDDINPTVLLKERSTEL
Description: A 0.1 gram sample of each test material was dissolved in 1 mL propanediol make a stock solution, each of which was subject to 1 to 2 serial dilutions using buffer for use in determining the IC50 Testing and analysis was performed in accordance with the protocol of the COX-2 Kt (Cayman Catalog #701080) (Cayman catalog #62160).

NFκB = test: NF-κB luminance reporter assay, TNFα activated; assay type: cell-based, Murine
Description: NFκB expression was quantified from the luminance signals released from cells treated with the test products and the control (untreated).

Type IV Collagen = Type IV Collagen Assay (ELISA, fibroblast culture medium); assay type: cell-based, human; conditions: for Type IV Collagen C-Peptide: 48 hours, untreated 7.76 ± 0.92
Description: In the study, human neonatal fibroblasts were seeded into the individual wells of a 48-well plate in 0.25 ml of Fibroblasts Growth Media (FGM) and incubated overnight at 37±2° C. and a 5±1% CO2 atmosphere. On the following day the media was removed via aspiration to eliminate non-adherent cells and replaced with 0.5 ml of fresh FGM. The cells were grown until confluent, with a media change every 48 to 72 hours. Upon reaching confluency the cells were treated for 24 hours with Dulbecco's Modified Eagle's medium (DMED) supplemented with 1.5% Fetal Bovine Serum (FBS) to wash out any effects from the growth factors included in the normal culture media. After this 24-hour wash out period the cells were treated with the test materials at the specified concentrations dissolved in FGM with 1.5% FBS. Sodium ascorbate (10 ug/ml) was used as a positive control. Untreated cells (negative controls) only received DMEM with […], The cells were incubated for 48 hours and at the end of the incubation period, cell culture medium was collected and either stored frozen (−75 C) or assayed immediately. Materials were tested in triplicate.
A series of type IV collagen peptide standards was prepared ranging from 0 ng/ml to 640 ng/ml. 100 μl of each standard or of each of the collected tissue culture media were added to the wells of type IV collagen ELISA plates. The plates were then incubated at 37° C. for 1 hour. After incubation, the ELISA plates were then washed twice with wash buffer, followed by the addition of 100 μl of detection antibody solution. The ELISA plates were then incubated for 1 hour at 37° C. Following incubation, the ELISA plates were washed with wash solution followed by the addition of 100 μl HEP conjugate solution and incubated at 37° C. for 30 minutes. Following the latter incubation, the ELISA plates were again washed and 100 μl of the substrate solution was added to each well and the well plates incubated for 10-30 minutes at room temperature to allow the color generation reaction to occur. At the end of the color generation reaction 100 μl of stop solution (1 N sulfuric acid) was added to each well and the plates read at 460 nm using a plate reader.
as §1

Compound | Average Cq(TPS) (Telomerase; 50 μg/ml) | Telomerase Activity (FC vs. water) (Telomerase; 50 μg/ml) [FC] | ΔCq sample-water (Telomerase; 50 μg/ml) | HDAC 3 activity, % of water-treated controls (HDAC 3; 25 ug/ml) [%] | HDAC 3 activity, % of water-treated controls (HDAC 3; 50 ug/ml) [%] | HDAC 3 activity, % of water-treated controls (HDAC 3; 200 ug/ml) [%] | Prolidase (Prolidase (PEPD); 10 μg/ml) [ng/mL] | Prolidase (Prolidase (PEPD); 20 μg/ml) [ng/mL] | Prolidase (Prolidase (PEPD); 30 μg/ml) [ng/mL] | Prolidase (Prolidase (PEPD); 60 μg/ml) [ng/mL] | COX-2 IC50 (COX-2) [µg/mL] | Type IV Collagen C-Peptide (Type IV Collagen; 10 μg/ml) [ng/mL] | Type IV Collagen C-Peptide (Type IV Collagen; 30 μg/ml) [ng/mL] | HDAC 3 activity, % of water-treated controls (HDAC 3; 100 ug/ml) [%] | further results
CCCC(=O)NCCCC[C@H](NC(=O)CCC)C(=O)[O-].CCCC(=O)NCCCC[C@H](NC(=O)CCC)C(=O)[O-].[Zn+2] [Zn di-(di-n-butyryl lysinate), Zinc di-(di-n-butyryl lysinate)] | 30.0 | 14.6 | 3.9 | 14 | 5 | 4 | 66 ± 4 | 104 ± 5 | 115 ± 8 | 145 ± 5 | 82.3 | 13.41 ± 1.40 | 26.98 ± 1.37 | – | Average Cq(TPS) (Telomerase; 10 μg/ml): 30.7; Telomerase Activity (FC vs. water) (Telomerase; 10 μg/ml): 8.9 FC; ΔCq sample-water (Telomerase; 10 μg/ml): 3.2; increase of prolidase vs control (Prolidase (PEPD); 60 μg/ml): 50%; IC50 in inhibiting NFκB (NFκB; C2C12 reporter cells, TNFα as activator): 70.4 µg/mL; fold more effective than Na butyrate in inhibiting NFκB (NFκB; ratio of IC50 values): about 110 fold; boosting of Collagen IV versus control (Type IV Collagen; 20 μg/ml): ~250%; Type IV Collagen C-Peptide (Type IV Collagen; 20 μg/ml): 21.19 ± 1.47 ng/mL; boosting of Collagen IV versus control (Type IV Collagen; 30 μg/ml): ~320%
CCCC(=O)[O-].[Na+] [Sodium butyrate, reference compound] | 34.3 | 0.7 | −0.5 | – | 98 | 60 | 54 ± 3 | 47 ± 6 | 37 ± 5 | 33 ± 5 | – | 9.29 ± 0.70 | 7.61 ± 0.70 | 82 | Average Cq(TPS) (Telomerase; 100 μg/ml): 33.7; Telomerase Activity (FC vs. water) (Telomerase; 100 μg/ml): 1.1 FC; ΔCq sample-water (Telomerase; 100 μg/ml): 0.1; HDAC 3 activity, % of water-treated controls (HDAC 3; 400 ug/ml): 49%; decrease of prolidase vs control (Prolidase (PEPD); 60 μg/ml): 50%; IC50 (NFκB; Mus musculus, C2C12 reporter cells, TNFα as activator, read-out: IC50 in inhibiting NFκB): 7700 µg/mL; Type IV Collagen C-Peptide (Type IV Collagen; 60 μg/ml): 11.88 ± 1.37 ng/mL; Type IV Collagen C-Peptide (Type IV Collagen; 100 μg/ml): 12.80 ± 1.83 ng/mL; Collagen IV boosting activity (Type IV Collagen; concentrations as high as 100 μg/ml): didn't show any
CCCC(=O)NCCCCC(NC(=O)CCC)C(=O)[O-].CCCC(=O)NCCCCC(NC(=O)CCC)C(=O)[O-].[Ca+2] (stereo not drawn) [Ca di-(di-n-butyryl lysinate), calcium di-(di-n-butyryl lysinate)] | – | – | – | 116 | 120 | 119 | – | – | – | – | 111.0 | – | – | 121 | –
Zinc Di-lysinate [Zn dilysinate] | – | – | – | – | 8 | 5 | – | – | – | – | – | – | – | – | HDAC 3 activity, % of water-treated controls (HDAC 3; 10 ug/ml): 18%
